Reference: patent publication US20060069157A1, “Method of ameliorating or abrogating the effects of a neurodegenerative disorder, such as Huntington's disease, by sodium butyrate chemotherapy” (U.S. DEPARTMENT OF VETERANS AFFAIRS, priority 2004, published 2006)
Entries after “also recorded” stand apart in the source; their conditions may differ.

Experiments:
[1] = test system: 3-NP induced striatal lesions in R6/2 mice; experiment: 3-Nitropropionic acid (3-NP) striatal toxicity in R6/2 mice; type: in vivo, mouse
Procedure: 3-Nitropropionic Acid Administration: At six weeks, groups of 10 R6/2 mice were treated with daily 1.2 g/kg sodium butyrate or PBS via intraperitoneal injections for two weeks. At the start of week two, 3-nitropropionic acid (3-NP) (Sigma, St. Louis, Mo.) was dissolved in PBS (pH adjusted to 7.4), made fresh daily, and injected intraperitoneally 9 times at 12 hrs intervals (75 mg/kg) in R6/2 mice. The mice were euthanized 8-10 hrs after the last 3-NP injection, deeply anesthetized and transcardially perfused with buffered 4% paraformaldehyde and processed for histopathologic evaluation. Glycerol cryoprotected brains were frozen sectioned at 50 Êm, stained with cresyl violet, and quantitative analysis of lesion volumes was performed in serial sections as described below.
Stereology/Quantitation: Serial-cut coronal tissue-sections beginning from the most rostral segment of the neostriatum to the level of the anterior commissure (Inter aural 5.34 mm/Bregma 1.54 mm to Inter aural 3.7 mm/Bregma −0.10 mm), were used for huntingtin aggregate analysis. Unbiased stereological counts of huntingtin-positive aggregates ([…]) were obtained from the neostriatum in 10 mice each from sodium butyrate-treated (1.2 g/kg) and PBS-treated R6/2 mice at 90 days using Neurolucida Stereo Investigator software (Microbrightfield, Colchester, Vt.). The total areas of the rostral neostriatum were defined in serial sections in which counting frames were randomly sampled. The optical dissector method was employed estimating the number of huntingtin-positive aggregates. Striatal neuron areas were analyzed by microscopic videocapture using a Windows-based image analysis system for area measurement (Optimas, Bioscan Incorporated, Edmonds, Wash.). The software automatically identifies and measures profiles. All computer identified cell profiles were manually verified as neurons and exported to Microsoft Excel. Cross-sectional areas were analyzed using Statview.

[2] = test system: huntingtin-positive aggregates; experiment: Huntingtin aggregate stereology and ubiquitin inclusions in neostriatum; type: in vivo, mouse; settings: 1.2 g/kg/d i.p. from 21 days; at 90 days; vs PBS-treated R6/2
Procedure: Neuropathological Evaluation of Sodium Butyrate Treatment: Beginning at 21 days, R6/2 transgenic mice and wild-type littermate control mice were treated daily with the most optimal dose of sodium butyrate (1.2 g/kg), as determined by survival studies, or PBS intraperitoneal injections. Groups of 10 animals from each treatment paradigm were deeply anesthetized and transcardially perfused with 4% buffered paraformaldehyde at 90 days of age. Forty mice were used for neuropathological analysis, as previously described (Ferrante et al., 2002). […]
Stereology/Quantitation: Serial-cut coronal tissue-sections beginning from the most rostral segment of the neostriatum to the level of the anterior commissure (Inter aural 5.34 mm/Bregma 1.54 mm to Inter aural 3.7 mm/Bregma −0.10 mm), were used for huntingtin aggregate analysis. […] Striatal neuron areas were analyzed by microscopic videocapture using a Windows-based image analysis system for area measurement (Optimas, Bioscan Incorporated, Edmonds, Wash.). […] Cross-sectional areas were analyzed using Statview.

[3] = test system: R6/2 transgenic mouse model of HD; experiment: Survival of R6/2 mice, intraperitoneal dose response; type: in vivo
Source text: Animals: The Bedford VA Medical Center laboratories have maintained a stable colony of R6/2 HD mice for over 6 years, with founders originating from Jackson Laboratories (Bar Harbor, Me., USA). Male transgenic HD mice of the R6/2 strain were bred with females from their background strain (B6CBAFI/J). Offspring were genotyped using a PCR assay on tail DNA. We have standardized criteria to ensure homogeneity of the cohorts within the testing groups (Dedeoglu et al., 2002). Mice were randomized from 28 litters all within 3 days from the same ‘f’ generation. Body weights were taken at 20 days and mice were equally distributed according to weight within each cohort. Mice under 7 g at 20 days were excluded from the experiments. The animals were housed 5/cage under standard conditions with free access to water and food. The mice were handled under the same conditions by one investigator. Since we have not observed gender differences in survival in the R6/2 transgenic HD mouse model (Ferrante et al., 2000), female mice were used in the experimental paradigms. These experiments were carried out in accordance with the NIH Guide for the Care and Use of Laboratory Animals, and were approved by both the Veterans Administration and Boston University Animal Care Committees.
Intraperitoneal Dosing: Based upon previous studies (Egorin et al., 1999), a dose response study was performed, treating groups of wild type mice (n=10) and littermate R6/2 mice (n=20) with 100, 200, 400, 600, 1,200, 5,000, and 10,000 mg/kg daily intraperitoneal injection (100 Êl) of sodium butyrate (Acros Organics/Fisher Scientific) dissolved in PBS and made fresh daily. […]
Survival: R6/2 mice were assessed for morbidity and mortality twice daily, mid morning and late afternoon. Motor performance and ability to feed were closely monitored and used as the basis for determining when to euthanize the mice. […] In addition, deaths occurred overnight and were recorded the following morning. […]
Statistics: The data are expressed as the mean+standard error of the mean. […] Survival data was analyzed by the Kaplan-Meier survival curves.

huntingtin transgene = experiment: Transgene expression (Western blot, whole brain, 1C2 antibody); type: in vivo, mouse; settings: 1.2 g/kg/d; R6/2 whole brain; vs PBS-treated R6/2
Procedure: Transgene Expression: Transgene expression was determined in whole brain by Western blot analysis of groups (n=6) of sodium butyrate-treated (1.2 g/kg/d) and untreated R6/2 mice. Brain tissue was homogenized in a protease inhibitor cocktail buffer (Complete, Roche). Twenty Êg of protein (supernatant fraction) was resolved on 10% SDS-polyacrylamide gel (BioRad), transferred to PVDF membrane (BioRad), and probed with 1C2 antibody (Euromedex, France) specific for regions of expanded huntingtin, using a horseradish conjugated anti-rabbit secondary antibody, followed by chemiluminescent detection (Western Lightening™, New England Nuclear), and run with parallel blots probed against (-tubulin to normalize for gel loading.

Body weight in R6/2 mice = type: in vivo, mouse; settings: same plateau in PBS-treated mice
Procedure: Intraperitoneal Dosing: Based upon previous studies (Egorin et al., 1999), a dose response study was performed, treating groups of wild type mice (n=10) and littermate R6/2 mice (n=20) with 100, 200, 400, 600, 1,200, 5,000, and 10,000 mg/kg daily intraperitoneal injection (100 Êl) of sodium butyrate (Acros Organics/Fisher Scientific) dissolved in PBS and made fresh daily. Control groups were treated with PBS injection or untreated. Approximately 240 mice were used for behavioral and survival analyses.
Clinical Assessment: Both motor performance and body weight were measured throughout the study. Training sessions were given on days 21 and 22 to acclimate the mice to the rotarod apparatus (Columbus Instruments, Columbus, Ohio). Motor performance (constant rotation at 16 rpm) was assessed weekly from 23-63 days of age and twice weekly from 63 days of age in the sodium butyrate-treated, PBS-treated R6/2 mice, and wild type littermate control mice. Three 60 sec trials were given during each session and averaged. Body weights were recorded twice weekly at the same time of day in all groups.

Compound: CCCC(=O)[O-].[Na+] [sodium butyrate]
- mice with bilateral striatal lesions ([1]; 1.2 g/kg/d i.p. two weeks, 3-NP in second week, 3-NP/PBS: seven of ten): two of ten
- neuroprotection from 3-NP striatal damage ([1]; 1.2 g/kg/d i.p. two weeks, 3-NP in second week, vs 3-NP and PBS-treated R6/2): prevented 3-NP striatal-induced damage; also recorded: marked neuroprotection; also recorded: nearly complete protection
- reduction in lesion volume ([1]; 1.2 g/kg/d i.p., vs 3-NP/PBS-treated R6/2 mice): 73.3%
- huntingtin-positive striatal aggregates or ubiquitin-positive inclusions [2]: no significant differences; also recorded: no significant reduction
- extension of survival ([3]; 1,200 mg/kg/d i.p. from day 21, vs PBS-treated R6/2 mice, p<0.001): 20.8%
- time at which mice became moribund and died ([3]; 5 g/kg/d i.p., treatment initiated at 21 days): 1 to 11 days
- morbidity and mortality at onset of treatment ([3]; 5,000 and 10,000 mg/kg/d i.p.): marked rapidly-coursing morbidity and mortality
- huntingtin transprotein expression-levels (huntingtin transgene): no differences
- body weight plateau until death (Body weight in R6/2 mice): 19-20 gms
